From EP2918282A1, “Pharmaceutical composition for the treatment of virus diseases, such as flu” (OOO "CytoNIR", priority 2014, dated 2015)

Tested on: Grippevirus A/Vladivostok/2/09 (H1N1)
Test: Survival of mice infected with a lethal dose of influenza virus, peroral treatment for 5 days
Assay type: in vivo, Mäuse
Conditions: for To-des-fälle / Überleben-de Mäuse / MLD, Tage (mittlere Lebensdauer innerhalb der Beobachtungsfrist) / Sterblichkeit % / MLD-Erhöhung, Tage / Schutzkennzahl, %: Tamiflu 30 mg/kg; for MLD-Erhöhung, Tage / Schutzkennzahl, %: versus Placebo
Excerpt: Die Wirksamkeit des Mittels wurde an einem Modell der Überlebensfähigkeit von angesteckten Versuchstieren geprüft. Die Versuchstiere wurden mit einer tödlichen Dosis des Grippevirus A/Vladivostok/2/09 (H1N1) angesteckt. Während der Forschung wurde das erfindungsgemäße Mittel 5 Tage lang peroral verabreicht.
Als Versuchstiere wurden weiße männliche Auszucht-Mäuse mit einem Körpergewicht von 16 - 18 g aus der Aufzuchtstation Rappolovo der Russischen Akademie der medizinischen Wissenschaften verwendet. Vor der Prüfung wurden die Versuchstiere einer Quarantäne in einem Vivarium im Laufe einer Woche unterzogen. Die Versuchstiere wurden unter genormten Klima-Bedingungen mit ausgewogener Fütterung gehalten. Jede Gruppe enthielt je 30 Versuchstiere.
Um eine versuchsmäßige Grippe-Infektion zu simulieren, wurde ein bestimmter Virusstamm eingesetzt. Die Versuchstiere wurden mit dem A/Vladivostok/2/09 (H1N1)-Virus in Mengen von 1 und 10 DL50 intranasal angesteckt.
Die Behandlung der angesteckten Mäuse wurde 24 Stunden nach der Ansteckung begonnen. Die Präparate wurden intragastrisch mittels einer Sonde verabreicht. Bei diesen Präparaten handelte es sich um eine Lösung in einer physiologischen Kochsalzlösung. Die Dosis des Arzneimittels wurde pro ein kg des Körpergewichts des Tieres berechnet. Die Behandlung wurde im Laufe von 5 Tagen vorgenommen. Die Wirksamkeit des Mittels wurde anhand der Überlebensraten der Tiere am 21. Tag nach der Ansteckung beurteilt.
Die erste Gruppe der Versuchstiere erhielt eine Lösung von Glutamyltryptophan und Natriumsalz der Glycyrrhizinsäure (nachfolgend GTGS); die zweite Gruppe der Tiere erhielt ein Präparat Tamiflu (Handelsnahme des Präparats Oseltamyvir) in der Dosis von 30 mg/kg; die dritte Gruppe der Tiere erhielt eine physiologische Kochsalzlösung (Placebo).

[1] = Virus-Dosis 1 (DL50), 15 animals per group, peroral day 1 to 5 after infection
[2] = Virus-Dosis 1 (DL50), peroral day 1 to 5 after infection
[3] = Virus-Dosis 10 (DL50), 15 animals per group, peroral day 1 to 5 after infection
[4] = Virus-Dosis 10 (DL50), peroral day 1 to 5 after infection
[5] = Virus-Dosis Gesamtdosis (both virus doses pooled), 30 animals, peroral day 1 to 5 after infection
[6] = Virus-Dosis Gesamtdosis (both virus doses pooled), peroral day 1 to 5 after infection
[7] = Virus-Dosis Gesamtdosis (both virus doses pooled)

**Q.** How did the To-des-fälle [1] turn out when CCOC(=O)C1=C[C@@H](OC(CC)CC)[C@H](NC(C)=O)[C@@H](N)C1 [Tamiflu, Oseltamyvir] was run?
**A.** Its To-des-fälle is 6.

**Q.** What about the “Überleben-de Mäuse” value [1] of the same molecule?
**A.** The value was 9.

**Q.** What about the “MLD, Tage (mittlere Lebensdauer innerhalb der Beobachtungsfrist)” value (“MLD, Tage” below) [2] of the same molecule?
**A.** The value was 11,7 Tage.

**Q.** And the Sterblichkeit % [2]?
**A.** Its Sterblichkeit % is 40,0%.

**Q.** And the “MLD-Erhöhung, Tage” value [2]?
**A.** The value was 1,1 Tage.

**Q.** What about the “Schutzkennzahl, %” value [2] of the same molecule?
**A.** The value was 25,0%.

**Q.** And the To-des-fälle [3]?
**A.** Its To-des-fälle is 12.

**Q.** And the “Überleben-de Mäuse” value [3]?
**A.** Its value is 3.

**Q.** And the “MLD, Tage” value [4]?
**A.** Its value is 9,0 Tage.

**Q.** What about the Sterblichkeit % [4] of the same molecule?
**A.** Its Sterblichkeit % is 80,0%.

**Q.** And the “MLD-Erhöhung, Tage” value [4]?
**A.** Its value is 1,9 Tage.

**Q.** What about the “Schutzkennzahl, %” value [4] of the same molecule?
**A.** Its value is 14,3%.

**Q.** What about the To-des-fälle [5] of the same molecule?
**A.** Its To-des-fälle is 18.

**Q.** And the “Überleben-de Mäuse” value [5]?
**A.** The value was 12.

**Q.** What about the “MLD, Tage” value [6] of the same molecule?
**A.** Its value is 10,4 Tage.

**Q.** What about the Sterblichkeit % [6] of the same molecule?
**A.** Its Sterblichkeit % is 60,0%.

**Q.** What about the “MLD-Erhöhung, Tage” value [7] of the same molecule?
**A.** Its value is 1,5 Tage.

**Q.** And the “Schutzkennzahl, %” value [7]?
**A.** The value was 18,2%.

**Q.** What about the Todesfälle (virus dose 10 DL50, 30 mg/kg) of the same molecule?
**A.** The Todesfälle was 80%.
